The record followed here is PMC8948257, “Limited solvation of an electron donating tryptophan stabilizes a photoinduced charge-separated state in plant (6–4) photolyase” (Scientific Reports, 2022).

Where a chain is given by its changes, count along the chain named.

What all share (type): binding
What all share (conditions): 5 mM L-cysteine, 20 mM phosphate pH 7.5, 500 mM NaCl, 10% glycerol, anaerobic, >430 nm light, on ice; native bound cofactor

Assay [1] concerns the target T1, At64 ((6-4) photolyase from Arabidopsis thaliana) (Arabidopsis thaliana, UniProt O48652, H382Y).
T1 construct: gene UVR3; pET-28a(+) NdeI/XhoI, His-tagged, expressed in E. coli C41(DE3)/pLysS; TALON and heparin purification
T1 sequence (O48652 20-556 H382Y): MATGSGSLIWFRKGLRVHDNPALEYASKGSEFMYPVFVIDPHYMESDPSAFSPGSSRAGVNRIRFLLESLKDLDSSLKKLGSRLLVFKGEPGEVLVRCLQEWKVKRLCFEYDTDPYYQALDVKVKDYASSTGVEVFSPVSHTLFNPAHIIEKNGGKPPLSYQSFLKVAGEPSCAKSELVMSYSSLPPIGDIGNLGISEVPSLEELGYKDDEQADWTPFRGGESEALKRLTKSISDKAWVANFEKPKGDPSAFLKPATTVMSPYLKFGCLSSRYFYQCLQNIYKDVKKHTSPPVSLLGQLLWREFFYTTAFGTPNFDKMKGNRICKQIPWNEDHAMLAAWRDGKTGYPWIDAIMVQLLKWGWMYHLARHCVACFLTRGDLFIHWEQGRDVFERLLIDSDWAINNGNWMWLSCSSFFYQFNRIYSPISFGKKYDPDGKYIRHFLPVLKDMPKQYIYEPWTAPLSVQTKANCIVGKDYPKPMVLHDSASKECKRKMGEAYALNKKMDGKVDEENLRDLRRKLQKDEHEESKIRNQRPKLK
Nature of the assay: steady-state FAD photoreduction by UV-Vis.

Assay [2] concerns the target T2, At64 ((6-4) photolyase from Arabidopsis thaliana) (Arabidopsis thaliana, UniProt O48652, H382V).
T2 construct: gene UVR3; pET-28a(+) NdeI/XhoI, His-tagged, expressed in E. coli C41(DE3)/pLysS; TALON and heparin purification
T2 sequence (O48652 20-556 H382V): T1 sequence (O48652 20-556 H382Y) with Y363V
Nature of the assay: steady-state FAD photoreduction by UV-Vis.

The target in assay [3] is T3, At64 ((6-4) photolyase from Arabidopsis thaliana) (Arabidopsis thaliana, UniProt O48652, H382S).
T3 construct: gene UVR3; pET-28a(+) NdeI/XhoI, His-tagged, expressed in E. coli C41(DE3)/pLysS; TALON and heparin purification
T3 sequence (O48652 20-556 H382S): T1 sequence (O48652 20-556 H382Y) with Y363S
Put plainly: steady-state FAD photoreduction by UV-Vis; transient absorption.

Assay [4] addresses T4, At64 ((6-4) photolyase from Arabidopsis thaliana) (Arabidopsis thaliana, UniProt O48652, H382N).
T4 construct: gene UVR3; pET-28a(+) NdeI/XhoI, His-tagged, expressed in E. coli C41(DE3)/pLysS; TALON and heparin purification
T4 sequence (O48652 20-556 H382N): T1 sequence (O48652 20-556 H382Y) with Y363N
Nature of the assay: steady-state FAD photoreduction by UV-Vis.

Assay [5] has as its target T5, Xl64 (Xenopus laevis (6-4) PL) (Xenopus laevis, UniProt Q9I910, W370F/S372H, form not given).
T5 construct: gene Xl64phr; pET28a(+), expressed in E. coli; only the W370F/S372H mutant made here
T5 sequence (Q9I910 1-526 W370F/S372H): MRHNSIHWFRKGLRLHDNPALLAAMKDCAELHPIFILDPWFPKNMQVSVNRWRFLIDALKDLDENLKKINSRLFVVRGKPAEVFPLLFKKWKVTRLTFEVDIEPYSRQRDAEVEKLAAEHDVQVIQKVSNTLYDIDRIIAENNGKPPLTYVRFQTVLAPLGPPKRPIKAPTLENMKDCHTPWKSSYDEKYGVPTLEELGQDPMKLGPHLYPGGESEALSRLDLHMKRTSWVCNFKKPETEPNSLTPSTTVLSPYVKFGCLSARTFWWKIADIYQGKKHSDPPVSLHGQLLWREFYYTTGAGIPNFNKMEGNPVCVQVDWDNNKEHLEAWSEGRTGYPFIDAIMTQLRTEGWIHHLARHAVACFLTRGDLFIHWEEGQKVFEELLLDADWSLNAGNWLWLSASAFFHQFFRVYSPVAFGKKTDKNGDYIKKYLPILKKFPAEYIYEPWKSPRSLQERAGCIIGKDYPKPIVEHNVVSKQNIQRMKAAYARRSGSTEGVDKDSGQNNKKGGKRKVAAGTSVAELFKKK
Put plainly: steady-state FAD photoreduction by UV-Vis.

Assay [6] concerns the target T6, At64 ((6-4) photolyase from Arabidopsis thaliana) (Arabidopsis thaliana, UniProt O48652, H382D).
T6 construct: gene UVR3; pET-28a(+) NdeI/XhoI, His-tagged, expressed in E. coli C41(DE3)/pLysS; TALON and heparin purification
T6 sequence (O48652 20-556 H382D): T1 sequence (O48652 20-556 H382Y) with Y363D
Put plainly: steady-state FAD photoreduction by UV-Vis.

Take `Cc1cc2nc3c(=O)[nH]c(=O)nc-3n(C[C@H](O)[C@H](O)[C@H](O)COP(=O)(O)OP(=O)(O)OC[C@H]3O[C@@H](n4cnc5c(N)ncnc54)[C@H](O)[C@@H]3O)c2cc1C` [flavin adenine dinucleotide]: the “steady-state FAD photoreduction by UV-Vis” value is “we successfully purified the H382D, H382N, H382V and H382Y mutants of At64” in assay [1]; “we successfully purified the H382D, H382N, H382V and H382Y mutants of At64” in assay [2]; “we successfully purified the H382D, H382N, H382V and H382Y mutants of At64” in assay [4]; “the W370F/S372H double mutant of Xl64 (Xl64-W370F/S372H)” in assay [5]; “we successfully purified the H382D, H382N, H382V and H382Y mutants of At64” in assay [6]. Also, in assay [3], the “steady-state FAD photoreduction by UV-Vis; transient absorption” value is recorded as “FAD photoreduction in At64-H382S occurred with a half-life”.
